From patent publication US20240239854A1, “ANTIMICROBIAL PEPTIDES AND MODIFICATIONS THEREOF” (Donald Danforth Plant Science Center, priority 2022, published 2024)
Values after ≈ are worked out from the molar mass of the structure shown. Read-outs that look alike come from different tables or passages of the source. Residues, ends and D or L forms follow the SMILES beside them.

What was measured:
[1] = system: F. graminearum; settings: in vitro, low cationic conditions; F. graminearum
[2] = system: Coccidioides sp.; format: cell-based; settings: Table 8
[3] = system: Listeria monocytogens (F5244); assay: Antibacterial growth inhibition in Mueller-Hinton media, OD600 (Example 3); format: cell-based; settings: Table 15; L. monocytogenes F5244; MH medium
[4] = system: Candida auris; assay: MIC, CLSI M27/M38, half-strength potato dextrose broth (Example 2); format: cell-based; settings: Table 8
[5] = system: P. capsici; assay: Antifungal MIC assay in SFM culture media (Example 1); format: cell-based; settings: in vitro, low cationic conditions
[6] = system: Candida glabrata; assay: Antifungal MIC in RPMI medium; settings: RPMI medium rich in cations
[7] = system: Salmonella Typhimurium var. Copenhagen; assay: Antibacterial growth inhibition in Mueller-Hinton media, OD600 (Example 3); format: cell-based; settings: Table 15; S. Typhimurium var. Copenhagen; MH medium
[8] = system: Enterotoxigenic E. coli-F4; assay: as above; format: cell-based; settings: Table 15, MH medium
Method: Salmonella Typhimurium var. Copenhagen, Enterotoxigenic E. coli-F4 and Listeria monocytogens (F5244) strains were grown overnight on an LB agar plate at 37_C. A small number of bacteria was scraped from the plate and added to Mueller-Hinton (MH) growth media and grown to log phase. Cells were diluted to 1-3×10^6 CFU/mL and 50 μl were added to each well in a polypropylene 96-well plate. Synthesized peptide GMA4C_V1A was diluted into 0.2% BSA, 0.0100 acetic acid solution and added to the concentration of 0.2, 0.4, 0.80, 1.6, 3.25, 7.5, 15, 30 and 60 and 120 μM. Then, 50 μl of each peptide solution was added to 50 μl of bacterial cells. Plates were parafilmed and incubated at 37° C. overnight. The concentrations at which bacterial growth inhibition was determined based on the OD600 nm value at each concentration relative to the OD600 nm value of MH medium alone and that of bacterial growth in MH medium without any peptide.

[9] = system: Candida albicans; assay: MIC, CLSI M27/M38, half-strength potato dextrose broth (Example 2); format: cell-based; settings: Table 8
[10] = system: C. parapsilosis; assay: as above; format: cell-based, Candida parapsilosis; settings: Table 8; C. parapsilosis ATCC 22019
Method: MICs were determined at 24-72 hours.

[11] = system: P. capsici; assay: In planta assay on tomato leaves (Example 1); format: in vivo; settings: applied on tomato leaves
Description: Antifungal activity in planta.

[12] = system: F. oxysporum; assay: Antifungal MIC assay in SFM culture media (Example 1); format: cell-based
[13] = system: Aspergillus fumigatus; assay: MIC, CLSI M27/M38, half-strength potato dextrose broth (Example 2); format: cell-based; settings: Table 8; Aspergillus fumigatus AF293
[14] = system: Candida auris; assay: Antifungal MIC in RPMI medium; settings: RPMI medium rich in cations
[15] = system: B. cinerea; settings: B. cinerea

In the case of `CC[C@H](C)[C@H](NC(=O)[C@H](CCCNC(=N)N)NC(=O)[C@@H](NC(=O)[C@H](CS)NC(=O)[C@H](Cc1ccccc1)NC(=O)[C@H](CS)NC(=O)[C@H](CCCNC(=N)N)NC(=O)[C@H](CCCNC(=N)N)NC(=O)[C@H](CCCNC(=N)N)NC(=O)[C@H](Cc1ccccc1)NC(=O)CNC(=O)[C@H](CCCCN)NC(=O)[C@H](CS)NC(=O)[C@H](CCCNC(=N)N)NC(=O)CNC(=O)CN)[C@@H](C)O)C(=O)N[C@@H](CS)C(N)=O` [GMA4C_V1A] (H-GGRCKGFRRRCFCTRIC-NH2; N-terminus assumed), the “Antifungal activity relative to the wild-type GMA4C_AC control” value [1] is reported as “equivalent”, the “MIC (μg/ml) 100%” value ([2]; Coccidioides sp. Cocci 1) is reported as 8 µg/mL (≈ 3.96 µM) and the “MIC (μg/ml) 100%” value ([2]; Coccidioides sp. Cocci2) is reported as 4 µg/mL (≈ 1.98 µM). The “MIC (μg/ml) 100%” value ([2]; Coccidioides sp. DI17-143) was 8 µg/mL (≈ 3.96 µM), the “Concentrations at which growth inhibition was observed” value [3] was 15 to 30 µM and the “MIC (μg/ml) 100%” value ([4]; Candida auris DI17-46) was 8 µg/mL (≈ 3.96 µM). The “MIC (μg/ml) 100%” value ([4]; Candida auris DI17-47) was 8 µg/mL (≈ 3.96 µM), the “MIC (μg/ml) 100%” value ([4]; Candida auris DI17-48) was 8 µg/mL (≈ 3.96 µM) and the “Antifungal activity relative to the wild-type GMA4C_AC control” value [5] was “equivalent”. For the same compound, the “Antifungal activity against C. glabrata” value [6] was “show antifungal activity”, the “Concentrations at which growth inhibition was observed” value [7] was 15 to 60 µM and the “Concentrations at which growth inhibition was observed” value [8] was 7.5 to 60 µM. The “MIC (μg/ml) 100%” value ([9]; Candida albicans ATCC 90028) was 8 µg/mL (≈ 3.96 µM), the “MIC (μg/ml) 100%” value ([9]; Candida albicans CA3) was 8 µg/mL (≈ 3.96 µM) and the “MIC (μg/ml) 100%” value ([9]; Candida albicans SC5314) was 8 µg/mL (≈ 3.96 µM). The “MIC (μg/ml) 100%” value [10] was 4 µg/mL (≈ 1.98 µM), the “Reduction of disease symptoms caused by P. capsici” value [11] was “more effective” and the “F. oxysporum MIC” value ([12]; Table 2, SFM culture media) was 6 μuM. For the same compound, the “Antifungal activity relative to the wild-type GMA4C_AC control” value ([12]; in vitro, low cationic conditions, F. oxysporum) was “equivalent”, the “MIC (μg/ml) 100%” value [13] was 32 µg/mL (≈ 15.9 µM) and the “Antifungal activity against C. auris” value [14] was “show antifungal activity”. The “Potency relative to GMA4C_AC in presence of cations” value ([15]; 100 mM NaCl or 100 mM KCl) was 2 fold, the “Fungal growth inhibition at 6 μM” value ([15]; in presence of 2 mM CaCl2, peptide 6 μM) was “inhibit fungal growth” and the “Antifungal activity relative to the wild-type GMA4C_AC control” value ([15]; in vitro, low cationic conditions) was “equivalent”.
